This note sets out measurements from patent US20160250121A1, “USE OF MONO ORNITHINE KETOGLUTARATE (MOKG)” (L'OREAL, priority 2013, published 2016).

The test system of this assay is Hair follicles. Briefly: Activity of actives on hair follicle growth (cultured scalp hair follicles, elongation by image analysis). The class given is cell-based. The following applies: for Growth: average elongation as percentage of control group (=100), 6 days of cultivation (5 of treatment). As for the experimental part: Hair follicles were taken from a single donor's scalp sample and transferred in sterile 24 well plates to be cultivated by using a modified Williams' Medium E. Cultivation took place for six days, while the experimental treatment of the follicles started 24 hours from the beginning of the cultivation. Hair follicles were selected for the experiments after 18 h of cultivation. Only those follicles showing a good vital stage and a growth of not less than 0.2 mm were considered suitable to be maintained in culture. All experimental groups and the control were prepared comprising 12 to 18 follicles, plated in 24-well plates at a density of 3 hair follicles/well. The hair follicles showing evident signs of sufferance during the culture for reasons not dependent on the experimental treatment were excluded from the final analysis.
The treatments consisted of mOKG concentrations varying from 0.001 to 0.1% b.w.
The growth performances observed in the treated hair follicles were compared to a control group cultured in the same culture medium free from OMG.
The experiment was terminated after 6 days of cultivation (5 of treatment). The growth of the hair follicles was studied by microphotography and subsequently determined by image analysis.
The average elongation detected in the experimental groups was expressed as percentage value of the growth performed by the control group. The statistical significance of the effects produced by the treatments was evaluated by means of analysis of variance (ANOVA) according the Duncan's method.

[1] abbreviates: Conc. 0.001% b.w. in culture medium.
The mark [2] stands for this setting: Conc. 0.01% b.w. in culture medium.
[3] abbreviates: Conc. 0.1% b.w. in culture medium.

For Di Ornithine Ketoglutarate, the Growth reads like this: under setting [1], 101%; under setting [2], 107%; under setting [3], 116%.
Taken in the same sequence, the figures for `Cl.NCCC[C@H](N)C(=O)O` [Ornithine hydrochloride] were 100%, 102% and 106%.
With `O=C(O)CCC(=O)C(=O)O` [Alpha-ketoglutarate], the Growth was 101% under setting [1], 103% under setting [2] and 104% under setting [3].
For the molecule `NCCC[C@H](N)C(=O)O.O=C(O)CCC(=O)C(=O)O` [Mono Ornithine Ketoglutarate, Mono-Ornithine (alpha-) ketoglutarate], the Growth by setting is: under setting [1], 112%; under setting [2], 120%; under setting [3], 122%. In addition, under “mOKG significantly effective at 0.001% b.w. as OKG at 0.1% b.w.”, the “Factor between effective concentrations (mOKG 0.001% b.w. vs OKG 0.1% b.w.)” value is reported as 100.
